Data reported in US20070149456A1, “Epithelial sodium channel inhibiting agents and uses therefor” (University of Pittsburgh, priority 2005, published 2007).
pIC50, pKi: −log10 of the molar value. Values joined by “and” are separate entries in the source; they are usually repeats but may differ in a detail not shown here. Identical values can stand only once. “Also recorded” adds a separate entry of the source. Like-named read-outs stand apart in the source and are kept apart here.

Target: T1, endogenous ENaC in mpkCCDc14 cells (Mus musculus, UniProt Q61180+Q9WU38+Q9WU39)
T1 construct: endogenous ENaC in a mouse cortical collecting duct (mpkCCDc14) cell line; endogenous in cells; host or cells: mpkCCDc14 mouse cortical collecting duct cell line
T1 sequence (Q61180 1-205): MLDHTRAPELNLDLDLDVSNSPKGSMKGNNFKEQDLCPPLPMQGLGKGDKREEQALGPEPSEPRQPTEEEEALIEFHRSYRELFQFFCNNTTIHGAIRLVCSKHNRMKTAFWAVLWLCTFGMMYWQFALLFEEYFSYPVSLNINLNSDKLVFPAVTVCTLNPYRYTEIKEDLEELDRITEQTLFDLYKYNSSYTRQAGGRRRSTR
T1 sequence (Q61180 232-699): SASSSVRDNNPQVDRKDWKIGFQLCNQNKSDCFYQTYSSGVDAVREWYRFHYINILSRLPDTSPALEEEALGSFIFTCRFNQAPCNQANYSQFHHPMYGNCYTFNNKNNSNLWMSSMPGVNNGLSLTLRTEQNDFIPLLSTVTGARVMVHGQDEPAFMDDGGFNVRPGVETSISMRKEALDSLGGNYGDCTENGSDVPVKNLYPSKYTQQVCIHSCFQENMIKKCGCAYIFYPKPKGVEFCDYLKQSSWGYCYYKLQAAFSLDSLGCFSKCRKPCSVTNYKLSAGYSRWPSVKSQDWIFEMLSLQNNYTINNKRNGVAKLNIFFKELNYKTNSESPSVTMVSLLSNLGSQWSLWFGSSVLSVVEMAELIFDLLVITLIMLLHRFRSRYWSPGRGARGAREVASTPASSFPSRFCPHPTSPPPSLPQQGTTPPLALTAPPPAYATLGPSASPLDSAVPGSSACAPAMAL
T1 sequence (Q9WU38 whole entry): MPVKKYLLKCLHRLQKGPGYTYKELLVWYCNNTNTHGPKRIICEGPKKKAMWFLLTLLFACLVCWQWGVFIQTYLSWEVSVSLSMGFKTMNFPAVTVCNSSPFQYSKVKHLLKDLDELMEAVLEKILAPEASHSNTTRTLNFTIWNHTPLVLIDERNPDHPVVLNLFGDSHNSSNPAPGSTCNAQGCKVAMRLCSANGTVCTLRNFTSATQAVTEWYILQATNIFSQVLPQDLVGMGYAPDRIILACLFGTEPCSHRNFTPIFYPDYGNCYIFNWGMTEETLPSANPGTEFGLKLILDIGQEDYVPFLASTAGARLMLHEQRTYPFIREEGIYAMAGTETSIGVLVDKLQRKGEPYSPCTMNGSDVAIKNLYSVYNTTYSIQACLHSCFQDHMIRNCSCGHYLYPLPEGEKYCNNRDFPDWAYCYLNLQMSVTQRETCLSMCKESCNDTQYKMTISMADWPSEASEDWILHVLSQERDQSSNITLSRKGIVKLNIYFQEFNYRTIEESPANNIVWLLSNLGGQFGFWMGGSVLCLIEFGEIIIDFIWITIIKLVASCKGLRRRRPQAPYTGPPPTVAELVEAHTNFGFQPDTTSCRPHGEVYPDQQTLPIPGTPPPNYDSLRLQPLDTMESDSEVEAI
T1 sequence (Q9WU39 1-143): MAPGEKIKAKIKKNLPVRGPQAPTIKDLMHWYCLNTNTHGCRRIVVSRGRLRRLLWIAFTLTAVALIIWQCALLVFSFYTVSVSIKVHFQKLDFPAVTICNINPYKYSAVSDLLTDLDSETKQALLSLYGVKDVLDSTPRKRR
T1 sequence (Q9WU39 187-655): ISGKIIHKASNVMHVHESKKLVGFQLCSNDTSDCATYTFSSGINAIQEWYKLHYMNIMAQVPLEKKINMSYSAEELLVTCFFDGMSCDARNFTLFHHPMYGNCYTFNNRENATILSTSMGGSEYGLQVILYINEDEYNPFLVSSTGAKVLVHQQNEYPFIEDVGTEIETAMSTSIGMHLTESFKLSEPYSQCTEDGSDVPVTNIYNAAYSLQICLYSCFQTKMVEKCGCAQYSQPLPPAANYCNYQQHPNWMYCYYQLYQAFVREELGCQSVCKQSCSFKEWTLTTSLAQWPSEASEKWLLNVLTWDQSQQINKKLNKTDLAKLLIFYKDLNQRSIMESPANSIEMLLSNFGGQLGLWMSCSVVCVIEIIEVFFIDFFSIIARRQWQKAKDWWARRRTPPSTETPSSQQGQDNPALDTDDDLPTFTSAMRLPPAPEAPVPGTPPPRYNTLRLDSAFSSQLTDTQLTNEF
Assay: Amiloride-sensitive short circuit current in mpkCCDc14 monolayers, Ussing chamber
Format: cell-based
Details: for inhibition of amiloride sensitive short circuit currents: mpkCCDc14, increasing concentrations of peptide; for pKi: mpkCCDc14 cells; for inhibition of transepithelial Na+ transport: peptide 3 μM in apical chamber; for reversibility of inhibition on washout: peptide 3 μM
Method: mpkCCDc14 Cell Culture—mpkCCDc14 cells were grown as previously reported (Bens, M., Vallet, V., Cluzeaud, F., Pascual-Letallec, L., Kahn, A., Rafestin-Oblin, M. E., Rossier, B. C., and Vandewalle, A. (1999), Corticosteroid-dependent sodium transport in a novel immortalized mouse collecting duct principal cell line, J. Am. Soc. Nephrol. 10, 923-934). mpkCCDc14 cells were subcultured onto permeable filter supports coated with collagen (0.4-μm pore size, 1-cm^2 surface area, Snapwell filters; Coming Inc., Acton, Mass.). Cells were kept on filters for at least 4 days in defined medium (Bens, M., Vallet, V., Cluzeaud, F., Pascual-Letallec, L., Kahn, A., Rafestin-Oblin, M. E., Rossier, B. C., and Vandewalle, A. (1999) J. Am. Soc. Nephrol. 10, 923-934 30) that was changed every second day. At least 24 h prior to the experiments, the culture medium was replaced with a minimal medium (without drugs or hormones) that contained only Dulbecco's modified Eagle's medium and Ham's F-12.
Short Circuit Current Measurements—Cell culture inserts were mounted in modified Ussing chambers (Harvard Apparatus, Holliston, Mass.), and the monolayers were continuously short-circuited with a voltage/current clamp system (Physiologic Instruments, San Diego, Calif.). A 2-mV bipolar pulse was applied periodically to measure the resistance of the monolayer. As previously described by Bridges et al. (Bridges, R. J., Newton, B. B., Pilewski, J. M., Devor, D. C., Poll, C. T., and Hall, R. L. (2001), Na+ transport in normal and CF human bronchial epithelial cells is inhibited by BAY 39-9437, Am. J. Physiol. 281, L16-L23 32, Na^+ transport in normal and CF human bronchial epithelial cells is inhibited by BAY 39-9437), the bath solution contained (in mM) 120 NaCl, 25 NaHCO3, 3.3 KH2PO4, 0.8 K2HPO4, 1.2 MgCl2, 1.2 CaCl2, and 10 glucose. The pH of this solution was 7.4 when gassed with a mixture of 95% O2-5% CO2 at 37° C.
(FIG. 6A) mpkCCDc14cells cultured on permeable membrane supports and mounted in a modified Ussing chamber were continuously short-circuited by a voltage clamp amplifier (Physiologic Instruments, San Diego, Calif.). Transepithelial resistance was monitored by applying a 4 mV bipolar pulse every 60 seconds. Where indicated, a 43 residue peptide corresponding to E144-K186 of mouse γ-ENaC (γ-peptide) was added to the apical chamber at a final concentration of 3 μM. […] Data presented as mean +/−standard error (n=8).
Vectors and Cell Culture—Wild-type, C-terminal and double epitope tagged mouse ENaC subunit cDNAs were previously described (Hughey, R. P., Mueller, G. M., Bruns, J. B., Kinlough, C. L., Poland, P. A., Harkleroad, K. L., Carattino, M. D., and Kleyman, T. R. (2003) J Biol Chem 278, 37073-37082 and Ahn, Y. J., Brooker, D. R., Kosari, F., Harte, B. J., Li, J., Mackler, S. A., and Kleyman, T. R. (1999), Cloning and functional expression of the mouse epithelial sodium channel, Am J Physiol 277, F121-129). The γ subunit mutations were generated in pcDNA3.1 (+) using a standard two-step PCR method. A cDNA clone (IMAGE #: 3600399) encoding full length mouse prostasin was obtained from Open Biosystems (Huntsville, Ala.) and sub-cloned into pcDNA3.1 (+) (Invitrogen, Carlsbad, Calif.). MDCK type 1 cells were a gift from Barry M. Gumbiner (Memorial Sloan-Kettering Cancer Center, New York) and were cultured as previously described (Lavelle, J. P., Negrete, H. O., Poland, P. A., Kinlough, C. L., Meyers, S. D., Hughey, R. P., and Zeidel, M. L. (1997), Low permeabilities of MDCK cell monolayers: a model barrier epithelium, Am J Physiol 273, F67-75). CCD (mpkCCDc14) cells were a gift from Alain Vandewalle (Institut National de la Santéet de la Recherche Médicale, Paris, France) and were cultured as previously described (Bens, M., Vallet, V., Cluzeaud, F., Pascual-Letallec, L., Kahn, A., Rafestin-Oblin, M. E., Rossier, B. C., and Vandewalle, A. (1999) J Am Soc Nephrol 10, 923-934).

Substance	increase of the IC50 for amiloride block (CCD cells, 3 μM γ-43)	pIC50 (mouse CCD (mpkCCDc14), nonlinear curve fitting, read-out: IC50, inhibition of short circuit currents)	inhibition of amiloride sensitive short circuit currents (listed as γ cleavage product)	inhibition of amiloride sensitive short circuit currents (listed as γ-peptide)	pKi (stated jointly for HBE and mpkCCDc14, read-out: apparent Ki, inhibition of endogenous ENaC activity)	inhibition of transepithelial Na+ transport	inhibition of transepithelial Na+ transport (listed as γ-peptide)	reversibility of inhibition on washout	reversibility of inhibition on washout (listed as γ-peptide)	pKi (stated jointly for HBE or mpkCCDc14, read-out: Ki, block of endogenous ENaC activity)
Ac-EAGSMRSTWEGTPPRFLNLIPLLVFNENEKGKARDFFTGRKRK-NH2 [γ-43]	60%	5.52 to 5.70 and 5.49	inhibited in a dose dependent manner	inhibited in a dose dependant manner	~5.70	rapidly inhibited; also recorded: marked inhibition	marked inhibition	reversible; also recorded: relieved by washout	reversibly inhibits; also recorded: relieved by wash out	
Ac-DLRGALPHPLQRLRTPPPPNPARSAR-NH2 [α-26]										4.00 to 4.30
